Measured values reported in the supplement of paper PMC10307832.

How the values were obtained:
Assay in all cases: relative viability (nuclei count vs DMSO), 5 days (fraction); higher = more cells survive
RU-SKI 43 + Dasatinib = compound: CC[C@@H](C)CNCC(=O)N1CCC2=C([C@@H]1COC3=CC=CC(=C3)C)C=CS2 [RU-SKI 43] + Cc1nc(Nc2ncc(C(=O)Nc3c(C)cccc3Cl)s2)cc(N2CCN(CCO)CC2)n1 [Dasatinib] (partner 0.075 µM)
How it was run: (§1)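 Lung cancer cell lines in 1536-well plates were dosed by pin tool the day after seeding, either with one drug alone or with a fixed anchor-drug dose plus five library-drug doses (not always all listed) in √10 steps. After 5 days, cells were fixed and their nuclei stained in one step (final 0.05% Triton X-100, 1% formaldehyde, 1 ug/ml Hoechst), then counted on 4× images. Relative viability is the nuclei count in treated wells divided by that in vehicle wells. Values are medians of duplicate plates.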

Irinotecan + Palbociclib = compound: CCc1c2c(nc3ccc(OC(=O)N4CCC(N5CCCCC5)CC4)cc13)-c1cc3c(c(=O)n1C2)COC(=O)[C@]3(O)CC [Irinotecan] + CC(=O)c1c(C)c2cnc(Nc3ccc(N4CCNCC4)cn3)nc2n(C2CCCC2)c1=O [Palbociclib] (partner 0.5 µM)
How it was run: as §1

Irinotecan + Navitoclax = compound: CCc1c2c(nc3ccc(OC(=O)N4CCC(N5CCCCC5)CC4)cc13)-c1cc3c(c(=O)n1C2)COC(=O)[C@]3(O)CC [Irinotecan] + CC1(C)CCC(c2ccc(Cl)cc2)=C(CN2CCN(c3ccc(C(=O)NS(=O)(=O)c4ccc(N[C@H](CCN5CCOCC5)CSc5ccccc5)c(S(=O)(=O)C(F)(F)F)c4)cc3)CC2)C1 [Navitoclax] (partner 0.5 µM)
How it was run: as §1

MK-8033 + AZD7762 = compound: Cn1cc(-c2cnc3ccc4ccc(CS(=O)(=O)NCc5ccccn5)cc4c(=O)c3c2)cn1 [MK-8033] + NC(=O)Nc1cc(-c2cccc(F)c2)sc1C(=O)N[C@H]1CCCNC1 [AZD7762] (partner 0.2 µM)
How it was run: as §1

Cell Line | relative viability (RU-SKI 43 + Dasatinib; first compound 0.1 µM) | relative viability (RU-SKI 43 + Dasatinib; first compound 0.3162 µM) | relative viability (RU-SKI 43 + Dasatinib; first compound 1 µM) | relative viability (RU-SKI 43 + Dasatinib; first compound 3.162 µM) | relative viability (RU-SKI 43 + Dasatinib; first compound 10 µM) | relative viability (Irinotecan + Palbociclib; first compound 0.6325 µM) | relative viability (Irinotecan + Palbociclib; first compound 2 µM) | relative viability (Irinotecan + Palbociclib; first compound 6.325 µM) | relative viability (Irinotecan + Palbociclib; first compound 20 µM) | relative viability (Irinotecan + Navitoclax; first compound 0.6325 µM) | relative viability (Irinotecan + Navitoclax; first compound 2 µM) | relative viability (Irinotecan + Navitoclax; first compound 6.325 µM) | relative viability (Irinotecan + Navitoclax; first compound 20 µM) | relative viability (MK-8033 + AZD7762; first compound 0.02 µM) | relative viability (MK-8033 + AZD7762; first compound 0.06325 µM) | relative viability (MK-8033 + AZD7762; first compound 0.2 µM) | relative viability (MK-8033 + AZD7762; first compound 0.6325 µM) | relative viability (MK-8033 + AZD7762; first compound 2 µM)
NCI-H1755 | 0.417 | 0.474 | 0.469 | 0.521 | 0.379 | 0.405 | 0.446 | 0.438 | 0.486 | 0.886 | 0.283 | 0.221 | 0.287 | 0.487 | 0.35 | 0.384 | 0.401 | 0.452
NCI-H1792 | 0.772 | 1.03 | 0.739 | 0.892 | 0.845 | 0.63 | 0.555 | 0.435 | 0.254 | 0.598 | 0.72 | 0.162 | 0.095 | 0.582 | 0.502 | 0.617 | 0.7 | 0.515
NCI-H1793 | 0.388 | 0.381 | 0.357 | 0.385 | 0.316 |  | 0.222 | 0.203 | 0.265 |  | 0.447 | 0.347 | 0.664 | 0.442 |  | 0.331 | 0.413 | 0.328
NCI-H1915 | 0.337 | 0.331 | 0.357 | 0.306 | 0.318 | 0.224 | 0.182 | 0.137 | 0.121 | 0.318 | 0.18 | 0.151 | 0.115 | 0.671 | 0.627 | 0.684 | 0.681 | 0.711
NCI-H1944 | 0.209 | 0.223 | 0.213 | 0.211 | 0.2 | 0.227 | 0.173 | 0.179 | 0.17 | 0.653 | 0.26 | 0.195 | 0.205 | 0.549 | 0.377 | 0.525 | 0.497 | 0.561
NCI-H1975 | 0.357 | 0.461 | 0.441 | 0.356 | 0.401 | 0.304 | 0.557 | 0.314 | 0.219 | 1.06 | 1.11 | 0.411 | 0.167 | 0.72 | 0.777 | 0.691 | 0.617 | 0.689
NCI-H1993 | 0.608 | 0.516 | 0.653 | 0.778 | 0.533 |  | 0.513 | 0.521 | 1.01 | 0.97 | 0.834 | 0.588 | 0.812 | 0.657 | 0.679 | 0.584 | 0.529 | 0.407
NCI-H2085 | 0.24 | 0.247 | 0.275 | 0.234 | 0.262 | 0.461 | 0.344 | 0.382 | 0.358 | 1.03 | 0.862 | 0.493 | 0.507 | 0.975 | 0.878 | 0.923 | 0.988 | 0.836
NCI-H2087 | 0.998 | 1.48 | 0.866 | 0.938 | 0.943 | 0.192 | 0.219 | 0.174 | 0.204 | 0.468 | 0.26 | 0.184 | 0.218 | 1.43 | 1.32 | 1.22 | 1.3 | 1.22
NCI-H2126 | 0.65 | 0.652 | 0.681 | 0.67 | 0.586 | 0.342 | 0.242 | 0.323 | 0.381 |  | 0.421 | 0.319 | 0.308 | 1.06 | 0.993 | 1.02 | 0.942 | 1.02
NCI-H2170 | 0.695 | 0.634 | 0.616 | 0.716 | 0.467 | 0.356 | 0.248 | 0.159 | 0.143 | 0.52 | 0.348 | 0.308 | 0.192 | 0.733 | 0.768 | 0.829 | 0.828 | 0.848
NCI-H2347 | 0.34 | 0.23 | 0.364 | 0.203 | 0.293 | 0.397 | 0.459 | 0.456 | 0.465 | 0.648 | 0.477 | 0.348 | 0.277 | 0.717 | 0.784 | 0.68 | 0.722 | 0.831
NCI-H2405 | 0.213 | 0.198 | 0.218 | 0.209 | 0.194 |  | 0.547 | 0.305 | 0.143 |  | 0.697 | 0.212 | 0.091 | 0.807 | 0.734 | 0.638 | 0.701 | 0.742
NCI-H3122 | 0.959 | 0.913 | 0.806 | 0.778 | 0.838 | 0.155 | 0.114 | 0.16 | 0.126 | 0.723 | 0.235 | 0.226 | 0.209 | 0.931 | 0.886 | 0.965 | 1.06 | 0.977
PC-3 [JPC-3] | 1.07 | 1.09 | 0.973 | 0.968 | 0.939 | 0.566 | 0.557 | 0.529 | 0.338 | 0.703 | 0.436 | 0.307 | 0.333 | 0.705 |  | 0.656 | 0.843 | 0.782
PC-14 | 0.242 | 0.25 | 0.283 | 0.241 | 0.183 | 0.378 | 0.34 | 0.183 | 0.148 | 0.987 | 0.876 | 0.196 | 0.147 | 0.357 | 0.296 | 0.351 | 0.302 | 0.354
RERF-LC-KJ | 0.788 | 0.938 | 0.992 | 0.771 | 0.704 | 1.02 | 0.819 | 0.405 | 0.265 | 0.936 | 1.18 | 0.52 | 0.504 | 0.984 | 0.84 | 1.01 | 0.981 | 0.942
